{"source": "patent US12065426B2", "about": "“Crystalline form of nilotinib hydrochloride, process for its preparation and pharmaceutical composition containing the same” (Laurus Labs Limited, priority 2018, dated 2024)", "key": {"[1]": {"assay": "Saturation solubility studies in various mediums", "conditions": "for solubility: 25 °C, thermodynamic from solid", "procedure": "Saturation solubility studies were conducted in various mediums for nilotinib hydrochloride Form L of the present invention and nilotinib hydrochloride monohydrate Form B (U.S. Pat. No. 8,415,363)."}, "[2]": {"assay": "Thermogravimetric analysis (TGA) / loss on drying", "format": "physicochemical", "conditions": "for Thermogravimetric (weight loss %): 10° C./minute, RT to 80° C.", "procedure": "Thermogravimetry analysis (TGA) data in the present invention was acquired using TA instruments TGA Q500 thermogravimetric analyser with universal Analysis 2000 software using the following conditions; Heating rate: 10° C./min; Temperature range: 28±2° C.-250° C.; Nitrogen flow: 60 mL/minute."}, "[3]": {"assay": "Variable temperature powder X-ray diffraction (VT-PXRD)", "format": "physicochemical", "conditions": "25-300° C., heating rate 10° C./mins"}, "[4]": {"assay": "Chemical and polymorphic stability study at different storage conditions (HPLC, XRD)", "format": "physicochemical", "set-up": "key to 5-Methyl isomer (Imp-4) / 4-Ethyl analogue (Imp-5) / Any unspecified impurity / Total Impurities / Methyl ester impurity (Imp-2) / Acid impurity (Imp-1): ND: Not detected; BDRL: Below disregard limit", "text": "Nilotinib hydrochloride Form L is packed in a transparent Low density polyethylene (LDPE) bag with a strip seal along with nitrogen filling, which is again kept in a second transparent low density polyethylene bag with strip seal. The LDPE bag is kept in to a triple laminated sunlight barrier with heat seal followed by in a high density polyethylene container and well closed.\nAlternatively, Nilotinib hydrochloride Form L is packed in a HM LDPE bag in nitrogen atmosphere, fill the bag with nitrogen and seal it with vacuum sealer. Place this bag in another HM LDPE bag, fill with nitrogen, keep one silica gel packet between two bags and seal the bag with vacuum sealer. Place this in a triple laminated sunlight barrier bag, seal the bag with vacuum sealer; and finally kept it in a HDPE container.\nThe Nilotinib hydrochloride Form L was analysed using High Performance Liquid Chromatography (“HPLC”) with the conditions as tabulated below: […]"}, "[5]": {"assay": "Dynamic vapour sorption (DVS)", "format": "physicochemical", "procedure": "Dynamic vapour sorption (DVS) data in the present invention was acquired using TA instruments TA Q5000SA Dynamic vapour sorption analyser with Universal Analysis 2000 software under following parameters; Sample was initially equilibrated at 0% RT for 120 mins; humidity range: 10 to 90%; humidity step size: 10%; Equilibration condition: change in mass less than 0.01% within 5 mins."}, "[6]": {"conditions": "from table 22 of U.S. Pat. No. 8,415,363, cited from earlier work"}}, "note": "Where two headings read alike, the source gives them in different places.", "data": [{"smiles": "Cc1cn(-c2cc(NC(=O)c3ccc(C)c(Nc4nccc(-c5cccnc5)n4)c3)cc(C(F)(F)F)c2)cn1.Cl", "note": "[Form L, 4-methyl-N-[3-(4-methyl-1H-imidazol-1-yl)-5-(trifluoromethyl)phenyl]-3-[[4-(3-pyridinyl)-2-pyrimidinyl]amino]-benzamide hydrochloride]", "values": [{"measurement": "solubility", "setting": "[1]; 0.01N HCl, simulated gastric fluid", "result": 170, "unit": "µg/mL"}, {"measurement": "solubility", "setting": "[1]; 0.1N HCl, simulated gastric fluid", "result": 1860, "unit": "µg/mL"}, {"measurement": "solubility", "setting": "[1]; ethanol, organic solvent or mixture", "result": 16300, "unit": "µg/mL"}, {"measurement": "solubility", "setting": "[1]; isopropanol, organic solvent or mixture", "result": 2740, "unit": "µg/mL"}, {"measurement": "solubility", "setting": "[1]; phosphate buffer, pH 6.8, aqueous buffer", "result": 20, "unit": "µg/mL"}, {"measurement": "Solubility compared to Form B", "setting": "[1]; various mediums", "result": "better solubility"}, {"measurement": "solubility", "setting": "[1]; water", "result": 160, "unit": "µg/mL"}, {"measurement": "Thermogravimetric (weight loss %)", "setting": "[2]", "result": "1.6 (RT to 80°) %"}, {"measurement": "Loss on drying", "setting": "[2]; 30° C.-100° C.", "result": 2.3, "unit": "%"}, {"measurement": "Loss on drying", "setting": "[2]; 100° C.-220° C.", "result": 7.3, "unit": "%"}, {"measurement": "Temperature up to which characteristic PXRD is retained", "setting": "[3]", "result": "about 140 °C"}, {"measurement": "4-Ethyl analogue (Imp-5)", "setting": "[4]; 25 ± 2° C./60 ± 5% RH, 2 month", "result": "BDRL"}, {"measurement": "5-Methyl isomer (Imp-4)", "setting": "[4]; 25 ± 2° C./60 ± 5% RH, 2 month", "result": "BDRL"}, {"measurement": "Any unspecified impurity", "setting": "[4]; 25 ± 2° C./60 ± 5% RH, 2 month", "result": "BDRL"}, {"measurement": "Description", "setting": "[4]; 25 ± 2° C./60 ± 5% RH, 2 month", "result": "Slightly yellow"}, {"measurement": "Solid form by XRD", "setting": "[4]; 25 ± 2° C./60 ± 5% RH, 2 month", "result": "Complies"}, {"measurement": "Total Impurities", "setting": "[4]; 25 ± 2° C./60 ± 5% RH, 2 month", "result": "BDRL"}, {"measurement": "4-Ethyl analogue (Imp-5)", "setting": "[4]; 25 ± 2° C./60 ± 5% RH, Initial", "result": "BDRL"}, {"measurement": "Any unspecified impurity", "setting": "[4]; 25 ± 2° C./60 ± 5% RH, Initial", "result": "BDRL"}, {"measurement": "Description", "setting": "[4]; 25 ± 2° C./60 ± 5% RH, Initial", "result": "Slightly yellow"}, {"measurement": "Solid form by XRD", "setting": "[4]; 25 ± 2° C./60 ± 5% RH, Initial", "result": "Complies"}, {"measurement": "Total Impurities", "setting": "[4]; 25 ± 2° C./60 ± 5% RH, Initial", "result": "BDRL"}, {"measurement": "4-Ethyl analogue (Imp-5)", "setting": "[4]; 40 ± 2° C./75 ± 5% RH, 1 month", "result": "BDRL"}, {"measurement": "5-Methyl isomer (Imp-4)", "setting": "[4]; 40 ± 2° C./75 ± 5% RH, 1 month", "result": "BDRL"}, {"measurement": "Acid impurity (Imp-1)", "setting": "[4]; 40 ± 2° C./75 ± 5% RH, 1 month", "result": "BDRL"}, {"measurement": "Any unspecified impurity", "setting": "[4]; 40 ± 2° C./75 ± 5% RH, 1 month", "result": "BDRL"}, {"measurement": "Description", "setting": "[4]; 40 ± 2° C./75 ± 5% RH, 1 month", "result": "Slightly yellow"}, {"measurement": "Methyl ester impurity (Imp-2)", "setting": "[4]; 40 ± 2° C./75 ± 5% RH, 1 month", "result": "BDRL"}, {"measurement": "Solid form by XRD", "setting": "[4]; 40 ± 2° C./75 ± 5% RH, 1 month", "result": "Complies"}, {"measurement": "Total Impurities", "setting": "[4]; 40 ± 2° C./75 ± 5% RH, 1 month", "result": "BDRL"}, {"measurement": "4-Ethyl analogue (Imp-5)", "setting": "[4]; 40 ± 2° C./75 ± 5% RH, 2 month", "result": "BDRL"}, {"measurement": "5-Methyl isomer (Imp-4)", "setting": "[4]; 40 ± 2° C./75 ± 5% RH, 2 month", "result": "BDRL"}, {"measurement": "Any unspecified impurity", "setting": "[4]; 40 ± 2° C./75 ± 5% RH, 2 month", "result": "BDRL"}, {"measurement": "Description", "setting": "[4]; 40 ± 2° C./75 ± 5% RH, 2 month", "result": "Slightly yellow"}, {"measurement": "Solid form by XRD", "setting": "[4]; 40 ± 2° C./75 ± 5% RH, 2 month", "result": "Complies"}, {"measurement": "Total Impurities", "setting": "[4]; 40 ± 2° C./75 ± 5% RH, 2 month", "result": "BDRL"}, {"measurement": "4-Ethyl analogue (Imp-5)", "setting": "[4]; 40 ± 2° C./75 ± 5% RH, Initial", "result": "BDRL"}, {"measurement": "Any unspecified impurity", "setting": "[4]; 40 ± 2° C./75 ± 5% RH, Initial", "result": "BDRL"}, {"measurement": "Description", "setting": "[4]; 40 ± 2° C./75 ± 5% RH, Initial", "result": "Slightly yellow"}, {"measurement": "Solid form by XRD", "setting": "[4]; 40 ± 2° C./75 ± 5% RH, Initial", "result": "Complies"}, {"measurement": "Total Impurities", "setting": "[4]; 40 ± 2° C./75 ± 5% RH, Initial", "result": "BDRL"}, {"measurement": "Polymorphic and chemical identity on storage", "setting": "[4]; different storage conditions, at least up to two months", "result": "retained the same polymorphic and chemical identity"}, {"measurement": "% Weight change", "setting": "[5]; Adsorption, 10 % RH", "result": 0.5405, "unit": "%"}, {"measurement": "% Weight change", "setting": "[5]; Adsorption, 20 % RH", "result": 0.7918, "unit": "%"}, {"measurement": "% Weight change", "setting": "[5]; Adsorption, 30 % RH", "result": 0.9954, "unit": "%"}, {"measurement": "% Weight change", "setting": "[5]; Adsorption, 40 % RH", "result": 1.170, "unit": "%"}, {"measurement": "% Weight change", "setting": "[5]; Adsorption, 50 % RH", "result": 1.350, "unit": "%"}, {"measurement": "% Weight change", "setting": "[5]; Adsorption, 60 % RH", "result": 1.544, "unit": "%"}, {"measurement": "% Weight change", "setting": "[5]; Adsorption, 70 % RH", "result": 1.904, "unit": "%"}, {"measurement": "% Weight change", "setting": "[5]; Adsorption, 80 % RH", "result": 2.661, "unit": "%"}, {"measurement": "% Weight change", "setting": "[5]; Adsorption, 90 % RH", "result": 5.414, "unit": "%"}, {"measurement": "% Weight change", "setting": "[5]; Desorption, 10 % RH", "result": 1.303, "unit": "%"}, {"measurement": "% Weight change", "setting": "[5]; Desorption, 20 % RH", "result": 1.751, "unit": "%"}, {"measurement": "% Weight change", "setting": "[5]; Desorption, 30 % RH", "result": 2.098, "unit": "%"}, {"measurement": "% Weight change", "setting": "[5]; Desorption, 40 % RH", "result": 2.855, "unit": "%"}, {"measurement": "% Weight change", "setting": "[5]; Desorption, 50 % RH", "result": 4.190, "unit": "%"}, {"measurement": "% Weight change", "setting": "[5]; Desorption, 60 % RH", "result": 4.453, "unit": "%"}, {"measurement": "% Weight change", "setting": "[5]; Desorption, 70 % RH", "result": 4.875, "unit": "%"}, {"measurement": "% Weight change", "setting": "[5]; Desorption, 80 % RH", "result": 5.134, "unit": "%"}, {"measurement": "% Weight change", "setting": "[5]; Desorption, 90 % RH", "result": 5.414, "unit": "%"}, {"measurement": "Water pick up", "setting": "[5]; at 80% RH at RT", "result": "about 2.7%"}, {"measurement": "Maximum absorption of water", "setting": "[5]; at 90% RH", "result": "about 5.4%"}, {"measurement": "Difference in water content between absorption and desorption", "setting": "[5]; between 50% and 60% RH at room temperature", "result": "about 3%"}, {"measurement": "Hygroscopicity", "setting": "[5]; from water pick up at 80% RH at RT", "result": "moderately hygroscopic"}]}, {"smiles": "Cc1cn(-c2cc(NC(=O)c3ccc(C)c(Nc4nccc(-c5cccnc5)n4)c3)cc(C(F)(F)F)c2)cn1.Cl.O", "note": "[Form B, reference compound]", "values": [{"measurement": "Saturation solubility", "setting": "[1]; 0.01N HCl, approximately at 25° C.", "result": 80, "unit": "µg/mL"}, {"measurement": "Saturation solubility", "setting": "[1]; 0.1N HCl, approximately at 25° C.", "result": 940, "unit": "µg/mL"}, {"measurement": "Saturation solubility", "setting": "[1]; Ethanol, approximately at 25° C.", "result": 3690, "unit": "µg/mL"}, {"measurement": "Saturation solubility", "setting": "[1]; Isopropanol, approximately at 25° C.", "result": 1930, "unit": "µg/mL"}, {"measurement": "Saturation solubility", "setting": "[1]; Phosphate buffer, pH 6.8, approximately at 25° C.", "result": "Below detection"}, {"measurement": "Saturation solubility", "setting": "[1]; Water, approximately at 25° C.", "result": 170, "unit": "µg/mL"}, {"measurement": "Thermogravimetric (weight loss %)", "setting": "[2]", "result": "0.91 (RT to 80° C.) %"}, {"measurement": "Loss on drying", "setting": "[6]; 30° C.-100° C.", "result": 1.00, "unit": "%"}, {"measurement": "Loss on drying", "setting": "[6]; 100° C.-220° C.", "result": 3.02, "unit": "%"}]}]}
